# Test results taken from patent US4565830A, “Method of ameliorating the subjective symptoms and objective signs in congestive heart failure” (priority 1981, dated 1986).
# Read-outs that look alike come from different tables or passages of the source.
# Experiments:
# [1] = Acute toxicity in Wistar male mice; format: in vivo
# Experimental: Each of 10 Wistar male mice, weighing 16-18 g, was administered with 7 g/kg of taurine (as an aqueous solution of 100 ml/kg).
# [2] = tested on: patients with heart failure; format: in vivo, human patients; design: key to Severity After, Score: summed symptom/sign points; higher = worse heart failure; settings: for Severity After, Score / Severity After, NYHA: 2 g twice daily, granules
# Experimental: Twenty-four patients with heart failure were administered every day, two doses containing 2 g each of taurine as granules, and then monitored. The underlying cause of heart failure and the combined therapeutic agents (+: combined, -: not combined) for each patient are shown in Table 2. The therapeutic agents combined with taurine were standard agents which have long been used. Most of the patients had not been improved or have been even worsened under the therapeutic agents in Table 2, prior to the new therapeutic modality of this invention being used. The severity of heart failure was expressed by NYHA Function Class (I to IV, mild to severe according to New York Heart Association) and a score based on observation of clinical symptoms and signs as shown in Table 3. The presence of a symptom or sign was given the point value indicated in the right column and the values for each of the symptoms and signs were summed up for the score. An increase in the score corresponds to a worsening in the patient's heart condition. […]
# guinea pigs = settings: Dietrich & Diacono 1971; cited from earlier work
# [3] = 7 g/kg as aqueous solution 100 ml/kg, 7 days observation, route not given
compound,measurement,setting,value
"NCCS(=O)(=O)O [taurine, 2-aminoethanesulfonic acid]",behavioral changes,[1]; [3],nor behavioral changes
same,death,[1]; [3],neither death
same,death and behavioral changes,"[1]; intravenous, same results = neither death nor behavioral changes",the same results were obtained
same,adverse reaction,"[2]; human, in vivo",without any adverse reaction
same,"Severity After, Score","[2]; patient 1, week 20, before 7.5, with digitalis",2
same,"Severity After, NYHA","[2]; patient 1, week 20, before II, with digitalis",I
same,"Severity After, Score","[2]; patient 2, week 4, before 6.5, with digitalis, diuretics",6.5
same,"Severity After, Score","[2]; patient 3, week 8, before 13, with digitalis, diuretics",5
same,"Severity After, Score","[2]; patient 4, week 32, before 12, with digitalis, diuretics, vasodilators",2.5
same,"Severity After, NYHA","[2]; patient 4, week 32, before III, with digitalis, diuretics, vasodilators",I
same,"Severity After, Score","[2]; patient 5, week 8, before 10, with digitalis, diuretics",2.5
same,"Severity After, Score","[2]; patient 6, week 8, before 5, no combined agent",2.5
same,"Severity After, Score","[2]; patient 7, week 8, before 6, with digitalis, diuretics",3
same,"Severity After, Score","[2]; patient 8, week 4, before 6, with digitalis, diuretics",5
same,"Severity After, Score","[2]; patient 9, week 4, before 4, no combined agent",3
same,"Severity After, Score","[2]; patient 10, week 4, before 9.5, with diuretics, vasodilators",5
same,"Severity After, Score","[2]; patient 11, week 6, before 9.5, with diuretics, vasodilators",6
same,"Severity After, Score","[2]; patient 12, week 2, before 3.5, no combined agent",3.5
same,"Severity After, Score","[2]; patient 13, week 2, before 8.5, with diuretics",7.5
same,"Severity After, Score","[2]; patient 14, week 2, before 3.5, with diuretics",3
same,"Severity After, Score","[2]; patient 15, week 4, before 4.5, with diuretics",1
same,"Severity After, Score","[2]; patient 16, week 4, before 5, with digitalis, diuretics, vasodilators",0.5
same,"Severity After, Score","[2]; patient 17, week 4, before 9, with digitalis, diuretics",1
same,"Severity After, Score","[2]; patient 18, week 4, before 13, with digitalis, diuretics",9
same,"Severity After, Score","[2]; patient 19, week 4, before 5.5, with digitalis, diuretics",4.5
same,"Severity After, Score","[2]; patient 20, week 2, before 5, with diuretics",3
same,"Severity After, Score","[2]; patient 21, week 4, before 9.5, combined agent ambiguous (none / diuretics)",4
same,"Severity After, Score","[2]; patient 22, week 4, before 4.5, with diuretics",3
same,"Severity After, Score","[2]; patient 23, week 4, before 5.5, no combined agent",5.5
same,"Severity After, Score","[2]; patient 24, week 4, before 9, with digitalis, diuretics",4
same,improvement with combined use of taurine,[2]; patients not controllable or worsened under prolonged conventional agents,unexpectedly improved
same,subjective symptoms and objective signs of heart failure,"[2]; patients with heart failure, general statement",effectively ameliorates the subjective symptoms and objective signs of heart failure
same,positive inotropic activity,guinea pigs,positive inotropic activity
